Test results published in patent publication US10590081B2, “Guanidine compounds and use thereof” (ImmunoMet Therapeutics Inc., priority 2015, dated 2020).
Structures can show the parent of a compound that is named as a salt. Where two headings read alike, the source gives them in different places.

How the values were obtained:
A549 cells = assay: Test for inhibition of OCR and enhancement of ECAR (XF Analyzer); type: cell-based; details: 24 hrs treatment, oxygen consumption rate
Source text: Measurement of Mitochondrial Complex I Inhibition
The electron transfer complex in mitochondria is composed of 5 complexes. The complex I accept electrons from NADH produced from glycolysis and TCA cycle and the electrons move to complex […] and the electron is finally transferred to O2 and water molecule is generated. During the electron transfer, proton gradient is generated and the chemical gradient is a driving source to synthesize ATP at complex V. The mitochondrial inhibition of complex I indirectly assessed by measuring the oxygen consumption rate (OCR) at complex IV. […] The solution outside of cells becomes acidic (lower pH) as lactate is transported to outside of cells. OCR and Extracellular acidification rate (ECAR) are determined by XF Analyzer (Seahorse Biosciences).
A549 cells were purchased from American Type Tissue Culture Collection (CCL-185™) and cultured in RPMI 1640 supplied with 10% fetal bovine serum (FBS) and antibiotic-antimycotic (Lifetech, CA). A549 cells were separated with 0.5% Trypsin-EDTA and 3,000 cells were plated on 1 mg/ml poly-D-lysine (Sigma, P6407) coated XF 96 well […]. A549 cells were allowed to adhere to the wells for 24 hours under the condition of temperature, 37° C. and 5% CO2. The sensor cartridge of XF Analyzer was soaked in 200 μl of Calibrant solution (Seahorse, MA) in a clear 96-well plate at 37° C. for 24 hours. The compounds of the present invention were diluted with RPMI 1640 without FBS, transferred to A549 cells on XF 96 well plate, and incubated further for 23 hours at 37° C. and 5% CO2. After incubation, the compound solution was exchanged with pre-warmed and pH adjusted (pH7.4) XF assay media (Seahorse) supplied with 15 mM D-glucose (Sigma), 15 mM sodium pyruvate (Lifetechnologies, CA) and 4 mM L-glutamine (Lifetechnologies, CA). The compounds of present invention were prepared in XF Assay media and added to the assay plate. The assay plate was equilibrated in XF Analyzer for 1 hour, and the reading were started by sensor cartridge. The cytotoxicity assay was followed using Cyquant (Lifetechnologies, CA) in order to calibrate the inhibition with cytotoxicity of compounds. The concentrations of the compounds were tested at 0, 0.5, 1, 5, 10 and 20 μM and IC50 value was obtained from the inhibited values. That is, from OCR inhibition values at each concentration of the compound, IC50 was calculated according to Prism's dose response curve fitting.
In Table 1, the levels of OCR IC50 are evaluated by the following.
According to the test results of the compounds, the compounds were classified into A, B and C.

SK-MEL-28 cells = assay: Cytotoxicity in low glucose condition (MTT assay); type: cell-based; details: 0.75 mM glucose, 72 hours treatment, read-out: SK-MEL-280.75 mM glucose cell viability (IC50 μM)
Source text: Cytotoxicity Assay in Low Glucose Condition
The inhibition of oxidative phosphorylation (OXPHOS) is not cytotoxic to cells in normal glucose condition, because it is postulated that normal cells have compensatory mechanism under energy stress conditions such as low glucose. However OXPHOS inhibitors show cytotoxic effect on cells in the glucose deprived condition (BirsoyK, 2014). The glucose deprived condition is observed in tumor microenvironment potentially due to poor angiogenesis. Therefore the OXPHOS inhibitors may show anti-cancer effect on cancer cells in low glucose condition that may depict tumor microenvironment.
The compounds of the present invention were evaluated their cytotoxicity in SK-MEL-28, melanoma with 0.75 mM glucose supplement. The cytotoxic effect is compared with the cytotoxicity caused by phenformin. The cytotoxicity in low glucose condition is correlated with inhibition of oxygen consumption in mitochondria.
SK-MEL-28 (HTB-72) is a melanoma cell line obtained from ATCC (MA) and cultured in RPMI 1640 media (Lifetechnologies, CA) with supplement of 10% FBS and antibiotic-antimycotic (Lifetechnologies, CA). RPMI 1640 (−Glucose) was used to prepare low glucose media and 0.75 mM glucose was supplied with D-(+)-glucose solution from Sigma. SK-MEL-28 cells were separated from culture plate using 0.5% trypsin-EDTA and 1,250 cells were plated in 96-well plate with low glucose media. After incubation at 37° C. for 24 hour, 5% CO2, the cells were treated with the compounds of present invention in FBS-free media for 72 hours. The cytotoxicity was measured by the MTT (AMRESCO, OH) assay. NADH-dependent cellular oxidoreductase reduces MTT to its insoluble […] with purple color. The enzyme depends on cell number or energy state of cells. 10 μl of 5 mg/ml MTT solution was added to each well of the assay plate and skip the well for blank. The plate was incubated at 37° C. and 5% CO2 for 2 hours. The MTT solution was removed from each well and 100 μl of DMSO was added. The plate was read by VICTOR X3 Multilabel Counter at the wavelength of 550 nm. In Table 2, the levels of IC50 are evaluated by the following criteria.
According to the concentration of compound for killing the half of cell populations (the levels of IC50), the compounds were classified into A, B and C, when the compounds were treated on SK-MEL-28 cells at 0.75 mM glucose.

Row | Compound | IC50 (A549 cells; Homo sapiens) | IC50 (SK-MEL-28 cells; Homo sapiens, SK-MEL-28, 72 h) | IC50 (A549 cells) | IC50 (SK-MEL-28 cells)
1 | N=C(NC(=N)N1CCC(F)(F)CC1)Nc1cccc(Oc2ccccc2)c1 [Example 13, N—(N-(3-phenoxyphenyl)carbamimidoyl)-4,4-difluoropiperidine-1-carboximidamide hydrochloride] | 2 to 4 µM | < 6 µM |  | 
2 | N=C(NC(=N)N1CCSC1)Nc1ccc(SC(F)(F)F)cc1 [Example 14, N—(N-(4-(trifluoromethythio)phenyl)carbamimidoyl)thiazolidine-3-carboximidamide hydrochloride] | 2 to 4 µM | < 6 µM |  | 
3 | N=C(NC(=N)N1CCC(F)(F)CC1)Nc1ccc(C(F)(F)F)cc1 [Example 21, N—(N-(4-(trifluoromethyl)phenyl)carbamimidoyl)-4,4-difluoropiperidine-1-carboximidamide acetate] | 2 to 4 µM | < 6 µM |  | 
4 | N=C(NC(=N)N1CCC(F)(F)CC1)Nc1ccc(I)c(Br)c1 [Example 22, N—(N-(3-bromo-4-iodophenyl)carbamimidoyl)-4,4-difluoropiperidine-1-carboximidamide acetate] | 2 to 4 µM | < 6 µM |  | 
5 | N=C(NC(=N)N1CCC(F)(F)CC1)Nc1ccc(Oc2ccccc2)cc1 [Example 23, N—(N-(4-phenoxyphenyl)carbamimidoyl)-4,4-difluoropiperidine-1-carboximidamide acetate] | 2 to 4 µM | < 6 µM |  | 
6 | N=C(NC(=N)N1CCC(F)(F)C1)Nc1ccc(OC(F)(F)F)cc1 [Example 25, N—(N-(4-(trifluoromethoxy)phenyl)carbamimidoyl)-3,3-difluoropyrrolidine-1-carboximidamide acetate] | 2 to 4 µM | < 6 µM |  | 
7 | N=C(NC(=N)N1CCC(F)(F)CC1)Nc1ccc(Br)c(Br)c1 [Example 26, N—(N-(3,4-dibromophenyl)carbamimidoyl)-4,4-difluoropiperidine-1-carboximidamide acetate] | 2 to 4 µM | 6 to 15 µM |  | 
8 | N=C(NC(=N)N1CCC(F)(F)CC1)Nc1ccc(OC(F)(F)F)c(F)c1 [Example 27, N—(N-(3-fluoro-4-(trifluoromethoxy)phenyl)carbamimidoyl)-4,4-fluoropiperidine-1-carboximidamide acetate] | < 2 µM | < 6 µM |  | 
9 | N=C(NC(=N)N1CCC(F)(F)C1)Nc1ccc(Oc2ccccc2)cc1 [Example 28, N—(N-(4-phenoxyphenyl)carbamimidoyl)-3,3-difluoropyrrolidine-1-carboximidamide acetate] | 2 to 4 µM | < 6 µM |  | 
10 | N=C(NC(=N)N1CCC(F)(F)C1)Nc1cccc(Oc2ccccc2)c1 [Example 29, N—(N-(3-phenoxyphenyl)carbamimidoyl)-3,3-difluoropyrrolidine-1-carboximidamide acetate] | < 2 µM | < 6 µM |  | 
11 | N=C(NC(=N)N1CCC(F)(F)C1)Nc1ccc(C(F)(F)F)cc1 [Example 30, N—(N-(4-(trifluoromethyl)phenyl)carbamimidoyl)-3,3-difluoropyrrolidine-1-carboximidamide acetate] | 2 to 4 µM | 6 to 15 µM |  | 
12 | N=C(NC(=N)N1CCC(F)(F)C1)Nc1ccc(I)c(Cl)c1 [Example 31, N—(N-(3-chloro-4-iodophenyl)carbamimidoyl)-3,3-difluoropyrrolidine-1-carboximidamide acetate] | 2 to 4 µM | 6 to 15 µM |  | 
13 | N=C(NC(=N)N1CCC(F)(F)C1)Nc1ccc(OC(F)(F)F)c(Cl)c1 [Example 38, N—(N-(3-chloro-4-(trifluoromethoxy)phenyl)carbamimidoyl)-3,3-difluoropyrrolidine-1-carboximidamide acetate] | 2 to 4 µM | 6 to 15 µM |  | 
14 | N=C(NCc1ccc(Cl)c(Cl)c1)NC(=N)N1CCC(F)(F)CC1 [Example 42, N—(N-(3,4-dichlorobenzyl)carbamimidoyl)-4,4-difluoropiperidine-1-carboximidamide hydrochloride] | > 4 µM | 6 to 15 µM |  | 
15 | N—(N-(4-(trifluoromethythio)phenyl)carbamimidoyl)-3,3-difluoropyrrolidine-1-carboximidamide acetate [Example 32] |  |  | 2 to 4 µM | < 6 µM
